Reference: US6610853B1, “N-(phenylsulfonyl)picolinamide derivatives, process for producing the same, and herbicide” (Kureha Kagaku Kogyo K.K., priority 2000, dated 2003)

Legend:
Assay in all cases: Test on herbicidal activity by foliar application
Assay type in all cases: in vivo
Details in all cases: foliar spray, 1 kg/ha, plants at 1-2 leaf stage in pots, evaluated 14 days after spraying
[1] = system: Convolvulus arvensis
Description: (§1) Test on Herbicidal Activity by Foliar Application: Herbicidal solutions of each test compounds, which were prepared by dissolving at predetermined concentrations such a wettable powder of the test compound as that described in the above Formulation Example, were sprayed at dosages of 1 kg/ha over foliar parts of Amaranthus retroflexus, Bidens pilosa, Sinapis arvensis, Stellaria media, Solanum nigrum, Abutilon theophrasti, Convolvulus arvensis, Matricaria chamomilla, Galium aparine, Veronica hederaefolia, and Setaria viridis (each test plant is 1-2 leaf stage) which were grown in pots. 14 days latter after spraying, its herbicidal activity was evaluated in accordance with the below-described system. Herbicidal Activity 1: less than 30% inhibition 2: 30% or more-50% inhibition 3: 50% or more-70% inhibition 4: 70% or more-90% inhibition 5: 90% or more inhibition

[2] = system: Stellaria media
Description: as §1

[3] = system: Matricaria chamomilla
Description: as §1

[4] = system: Abutilon theophrasti
Description: as §1

[5] = system: Setaria viridis
Description: as §1

[6] = system: Sinapis arvensis
Description: as §1

[7] = system: Galium aparine
Description: as §1

[8] = system: Bidens pilosa
Description: as §1

[9] = system: Amaranthus retroflexus
Description: as §1

[10] = system: Veronica hederaefolia
Description: as §1

[11] = system: Solanum nigrum
Description: as §1

Compound	Herbicidal activity, Convolvulus arvensis [1]	Herbicidal activity, Stellaria media [2]	Herbicidal activity, Matricaria chamomilla [3]	Herbicidal activity, Abutilon theophrasti [4]	Herbicidal activity, Setaria viridis [5]	Herbicidal activity, Sinapis arvensis [6]	Herbicidal activity, Galium aparine [7]	Herbicidal activity, Bidens pilosa [8]	Herbicidal activity, Amaranthus retroflexus [9]	Herbicidal activity, Veronica hederaefolia [10]	Herbicidal activity, Solanum nigrum [11]
COc1ccc(C(=O)NS(=O)(=O)c2ccccc2S(=O)(=O)N(C)C)nc1[N+](=O)[O-] [Compound I-858, N-[[2-(N,N-Dimethylaminosulfonyl)phenyl]-sulfonyl]-5-methoxy-6-nitro-2-pyridinecarboxamide]	5 (90% or more inhibition)	5 (90% or more inhibition)	4 (70% or more-90% inhibition)	5 (90% or more inhibition)	5 (90% or more inhibition)	5 (90% or more inhibition)	5 (90% or more inhibition)	5 (90% or more inhibition)	5 (90% or more inhibition)	4 (70% or more-90% inhibition)	5 (90% or more inhibition)
COC(=O)c1ccccc1S(=O)(=O)NC(=O)c1ccc(OC)c(Br)n1 [Compound I-265, 2-[[[(6-Bromo-5-methoxypyridin-2-yl)carbonyl]-amino]sulfonyl]benzoic acid methyl ester]	3 (50% or more-70% inhibition)	5 (90% or more inhibition)	5 (90% or more inhibition)	5 (90% or more inhibition)	4 (70% or more-90% inhibition)	5 (90% or more inhibition)	4 (70% or more-90% inhibition)	5 (90% or more inhibition)	5 (90% or more inhibition)	3 (50% or more-70% inhibition)	5 (90% or more inhibition)
COc1ccc(C(=O)NS(=O)(=O)c2c(Cl)cccc2Cl)nc1 [Compound I-594, N-[(2,6-Dichlorophenyl)sulfonyl]-5-methoxy-2-pyridinecarboxamide]	2 (30% or more-50% inhibition)	5 (90% or more inhibition)	4 (70% or more-90% inhibition)	4 (70% or more-90% inhibition)	2 (30% or more-50% inhibition)	5 (90% or more inhibition)	4 (70% or more-90% inhibition)	4 (70% or more-90% inhibition)	2 (30% or more-50% inhibition)	4 (70% or more-90% inhibition)	2 (30% or more-50% inhibition)
COc1ccc(C(=O)NS(=O)(=O)c2ccccc2S(=O)(=O)N(C)C)nc1C [Compound I-859, N-[[2-(N,N-Dimethylaminosulfonyl)phenyl]-sulfonyl]-6-methyl-5-methoxy-2-pyridinecarboxamide]	4 (70% or more-90% inhibition)	5 (90% or more inhibition)	5 (90% or more inhibition)	5 (90% or more inhibition)	5 (90% or more inhibition)	5 (90% or more inhibition)	5 (90% or more inhibition)	5 (90% or more inhibition)	5 (90% or more inhibition)	5 (90% or more inhibition)	5 (90% or more inhibition)
COc1ccc(C(=O)NS(=O)(=O)c2c(Cl)cccc2Cl)nc1Cl [Compound I-618, N-[(2,6-Dichlorophenyl)sulfonyl]-6-chloro-5-methoxy-2-pyridinecarboxamide]	3 (50% or more-70% inhibition)	5 (90% or more inhibition)	5 (90% or more inhibition)	5 (90% or more inhibition)	2 (30% or more-50% inhibition)	5 (90% or more inhibition)	4 (70% or more-90% inhibition)	5 (90% or more inhibition)	2 (30% or more-50% inhibition)	5 (90% or more inhibition)	5 (90% or more inhibition)
Cc1nc(C(=O)NS(=O)(=O)c2ccccc2S(=O)(=O)N(C)C)ccc1[N+](=O)[O-] [Compound I-868, N-[[2-(N,N-Dimethylaminosulfonyl)phenyl]-sulfonyl]-6-methyl-5-nitro-2-pyridinecarboxamide]	3 (50% or more-70% inhibition)	4 (70% or more-90% inhibition)	2 (30% or more-50% inhibition)	3 (50% or more-70% inhibition)	3 (50% or more-70% inhibition)	5 (90% or more inhibition)	5 (90% or more inhibition)	5 (90% or more inhibition)	3 (50% or more-70% inhibition)	3 (50% or more-70% inhibition)	4 (70% or more-90% inhibition)
COc1ccc(C(=O)NS(=O)(=O)c2ccccc2OC(F)(F)F)nc1 [Compound I-774, N-[(2-Trifluoromethoxyphenyl)sulfonyl]-5-methoxy-2-pyridinecarboxamide]	4 (70% or more-90% inhibition)	5 (90% or more inhibition)	5 (90% or more inhibition)	5 (90% or more inhibition)	5 (90% or more inhibition)	5 (90% or more inhibition)	4 (70% or more-90% inhibition)	5 (90% or more inhibition)	4 (70% or more-90% inhibition)	5 (90% or more inhibition)	5 (90% or more inhibition)
COc1cc(Cl)nc(C(=O)NS(=O)(=O)c2c(F)cccc2F)c1 [Compound I-975, N-[(2,6-Difluorophenyl)sulfonyl]-6-chloro-4-methoxy-2-pyridinecarboxamide]	4 (70% or more-90% inhibition)	4 (70% or more-90% inhibition)	4 (70% or more-90% inhibition)	5 (90% or more inhibition)	3 (50% or more-70% inhibition)	5 (90% or more inhibition)	5 (90% or more inhibition)	5 (90% or more inhibition)	3 (50% or more-70% inhibition)	3 (50% or more-70% inhibition)	5 (90% or more inhibition)
COC(=O)c1ccccc1S(=O)(=O)NC(=O)c1ccc(OC)c(OC)n1 [Compound I-259, 2-[[[(5,6-Dimethoxypyridin-2-yl)carbonyl]-amino]sulfonyl]benzoic Acid Methyl Ester]	3 (50% or more-70% inhibition)	5 (90% or more inhibition)	4 (70% or more-90% inhibition)	5 (90% or more inhibition)	4 (70% or more-90% inhibition)	5 (90% or more inhibition)	5 (90% or more inhibition)	4 (70% or more-90% inhibition)	5 (90% or more inhibition)	4 (70% or more-90% inhibition)	4 (70% or more-90% inhibition)
COc1cc(Cl)nc(C(=O)NS(=O)(=O)c2c(Cl)cccc2Cl)c1 [Compound I-615, 6-Chloro-N-[(2,6-Dichlorophenyl)sulfonyl]-4-methoxypyridine-2-carboxamide]	4 (70% or more-90% inhibition)	5 (90% or more inhibition)	5 (90% or more inhibition)	5 (90% or more inhibition)	4 (70% or more-90% inhibition)	5 (90% or more inhibition)	5 (90% or more inhibition)	5 (90% or more inhibition)	4 (70% or more-90% inhibition)	4 (70% or more-90% inhibition)	5 (90% or more inhibition)
